Data published in patent publication US8519110B2, “mRNA cap analogs” (Board of Supervisors of Louisiana State University And …, priority 2008, dated 2013).
Where two headings read alike, the source gives them in different places.

How the values were obtained:
eIF4E = eIF4E (Mus musculus, UniProt P63073); assay: Binding affinity of cap analogs to eIF4E by fluorescence titration; conditions: equilibrium association constant; 20 °C, pH 7.2, ionic strength 150 mM
Method: Fluorescence titration measurements were carried out on an LS-50B or LS-55 spectrofluorometer (Perkin Elmer Co.) at 20.0±0.2° C. in 50 mM HEPES/KOH (pH 7.2), 0.5 mM EDTA, and 1 mM DTT, with ionic strength adjusted to 150 mM by addition of KCl. Various cap analogue solutions, of increasing concentration, were added in 1 μl aliquots to 1.4 ml of 0.1 or 0.2 μM protein solutions. Fluorescence intensities were measured with excitation at 280 nm or 295 nm with 2.2 nm bandwidth, and detection at 337 nm with 4 nm bandwidth and a 290-nm cut-off filter. The data were corrected for sample dilution and inner filter effects. Equilibrium association constants (Kas) were determined by fitting the theoretical dependence of fluorescence intensity on cap analog concentration to the experimental data, as otherwise described in A. Niedźwiecka et al., “Biophysical studies of eIF4E cap-binding protein: recognition of mRNA 5′ cap structure and synthetic fragments of eIF4G and 4E-BP1 proteins,” J. Mol. Biol., vol. 312, pp. 615-635 (2002). The concentration of protein was allowed to be a free parameter in the equilibrium equation, to determine the amount of “active” protein. The final Kas was calculated as a weighted average of three to ten independent titrations, with the weights taken as the reciprocals of the squares of the numerical standard deviations. Numerical nonlinear least-square regression analysis was performed using ORGIN 6.0 (Microcal Software Inc., USA).
The binding affinities of eukaryotic eIF4E for various cap analogs were determined by fluorescence quenching. This biophysical test allows one to predict the potential efficacy of cap analogs in translation. Those having higher affinities for eIF4E than the unmodified cap analog (m^7GpppG) are expected to be better recognized by the translational machinery, leading to higher translational efficiencies. They also are expected to compete more effectively with unmodified mRNA when free cap dinucleotides are used to inhibit translation. See generally E. Grudzien-Nogalska et al., “Synthesis of anti-reverse cap analogs (ARCAs) and their applications in mRNA translation and stability,” Methods Enzymol., vol. 431, pp. 203-227 (2007).

Human DcpS = target: T1, Human DcpS (Homo sapiens, UniProt Q96C86); assay: Assay of susceptibility to DcpS (RP HPLC); assay type: biochemical; conditions: 40 μM cap analog, 30° C., up to 120 min
T1 construct: made in house; host or cells: Escherichia coli
T1 sequence (Q96C86 1-337): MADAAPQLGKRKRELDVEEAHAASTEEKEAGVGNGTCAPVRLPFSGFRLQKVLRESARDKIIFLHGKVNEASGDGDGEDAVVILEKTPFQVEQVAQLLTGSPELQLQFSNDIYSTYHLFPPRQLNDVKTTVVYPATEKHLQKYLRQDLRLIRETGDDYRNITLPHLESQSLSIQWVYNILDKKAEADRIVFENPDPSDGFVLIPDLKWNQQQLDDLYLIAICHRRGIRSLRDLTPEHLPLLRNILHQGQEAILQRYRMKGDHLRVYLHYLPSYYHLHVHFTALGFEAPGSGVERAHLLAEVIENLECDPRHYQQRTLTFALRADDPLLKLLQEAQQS
Method: Human DcpS was expressed in Escherichia coli as described in L. Cohen et al., “Nematode m^7GpppG and m3^2,2,7GpppG decapping: activities in Ascaris embryos and characterization of C. elegans scavenger DcpS,” RNA, vol. 10, pp. 1609-1624 (2004). A 15 μM solution of the protein in 20 mM Tris buffer, pH 7.5, containing 50 mM KCl, 0.2 mM EDTA, 1 mM DTT, 0.5 mM PMSF, and 20% glycerol was stored at −80° C. until used. Enzymatic reactions were carried out at 30° C. in 500 μl of 50 mM Tris-HCl, pH 7.9, containing 20 mM MgCl2 and 60 mM (NH4)2SO4. A 40 μM solution of the selected cap analog was treated with 5.0 μl of DcpS for 120 min. At times of 10, 30, 60, and 120 min, a 100-μl sample was collected from the reaction mixture and deactivated by incubation at 90° C. for 2 min. Samples were analyzed without further treatment by analytical RP HPLC with a linear gradient of methanol in 0.1 M KH2PO4, pH 6.0, from 0-50% over 15 min.

[1] = target: cap-dependent translation of luciferase mRNA in reticulocyte lysate; assay: Inhibition of cap-dependent translation in vitro by free cap analogs; assay type: biochemical, rabbit
Method: In vitro translation reactions were performed in 12.5 μl for 60 min at 30° C. under conditions favorable for cap-dependent translation. In some cases, the reaction mixture was incubated for 60 min at 30° C. prior to adding the dinucleotide cap analog (inhibitor) and m2^7,3′-OGppG-capped luciferase mRNA to start translation. In other cases, to analyze biological stability, the cap analog was incubated in the translation mixture for 60 min at 30° C. prior to adding the luciferase mRNA to start translation. A typical reaction mixture contained 56% reticulocyte lysate, the 20 “standard” amino acids (0.01 mM each), MgCl2 (1.2 mM), potassium acetate (170 mM), RiboLock Ribonuclease Inhibitor (0.32 U/μl), cap analog solution ( 1/10 of total reaction volume), and m2^7,3′-OGpppG-capped luciferase RNA. […] Reactions were performed with cap analog concentrations ranging from 0.12 to 100 μM. Luciferase activity was measured in a luminometer. […] The program OriginPro8 (OriginLab) was used for curve fitting with the equation qLUC=Z/(1+I/IC50)+N, where qLUC is the activity of luciferase synthesized in the presence of cap analog, Z is the activity of luciferase synthesized in the absence of cap analog, N is the activity of luciferase synthesized in a cap-independent manner, and I is the cap analog concentration.
Two type of experiments were carried out. In one set of experiments (condition A), a cap analog was added to the translation system together with luciferase mRNA. In the other set of experiments (condition B), the cap analog was incubated in the translation system for 60 min before addition of mRNA. […] There was a correlation between the resistance to hydrolysis by DcpS and the stability of analogs in the translation system.

[2] = tested on: rabbit reticulocyte lysate system; assay: In vitro translation efficiency of capped luciferase mRNA with 31-base poly(A) tail, method II transcripts; assay type: biochemical
Method: Capped, polyadenylated luciferase mRNAs were synthesized in vitro by PCR from a dsDNA template that contained the SP6 promoter, the 5′-UTR sequence of rabbit β-globin mRNA, the entire firefly luciferase coding region, and 31 adenosine residues. A typical transcription reaction mixture (40 μl) contained SP6 transcription buffer (Fermentas), 0.7 ug of DNA template, 1 U/μl RiboLock Ribonuclease Inhibitor (Fermentas), 0.5 mM each of ATP, CTP, and UTP, 0.1 mM GTP, and 0.5 mM dinucleotide cap analog. The reaction mixture was incubated at 37° C. for 5 min before addition of SP6 RNA polymerase (Fermentas) to a final concentration of 1 U/μl, and incubation then continued for 45 min at 37° C. The reaction mixture was treated with DNase as in Method I. RNA transcripts were purified with NucAway Spin Columns (Ambion). The integrity of transcripts and quantitation was performed as in Method I.
A micrococcal nuclease-treated rabbit reticulocyte lysate system (Flexi Rabbit Reticulocyte Lysate System, Promega) was used for in vitro translation. Translation reactions were performed in 10 μl for 60 min at 30° C. A typical reaction mixture contained 40% reticulocyte lysate, the 20 “standard” amino acids (0.01 mM each), MgCl2 (1.2 mM), potassium acetate (170 mM), and mRNA (five different concentrations of each transcript, ranging from 0.25 to 4 μg/ml). Luciferase activity was measured in a luminometer (Glomax, Promega). Linear regression was used to fit the data points (luciferase activity versus concentration of mRNA transcript), and translational efficiency was defined as the slope of this line. The relative translational efficiencies of the test mRNAs were compared to that of m^7GpppG-capped luciferase mRNA, the latter being defined as 1.0.

eIF4E, sequence (P63073 28-217 limits assumed): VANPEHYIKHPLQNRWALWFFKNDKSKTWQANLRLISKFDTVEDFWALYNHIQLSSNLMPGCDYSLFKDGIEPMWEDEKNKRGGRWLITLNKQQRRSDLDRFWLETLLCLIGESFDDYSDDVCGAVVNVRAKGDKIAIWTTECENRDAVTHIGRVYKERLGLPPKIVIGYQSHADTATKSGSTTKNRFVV

| Cap analog/eIF4E affinity (KAS) (eIF4E) | Susceptibility to DcpS (Human DcpS) | IC50 ([1]; cap analog added together with luciferase mRNA, read-out: Inhibition of in vitro translation (IC50), condition A) | IC50 ([1]; cap analog incubated in translation system 60 min before addition of mRNA, read-out: Inhibition of in vitro translation (IC50), condition B) | Translation efficiency in comparison to m^7GpppG-LUC-(A)31 mRNA, Experiment No. 4 ([2]; experiment 4) | Translation efficiency in comparison to m^7GpppG-LUC-(A)31 mRNA, Experiment No. 5 ([2]; experiment 5) | Translation efficiency in comparison to m^7GpppG-LUC-(A)31 mRNA, Mean ([2]; mean of experiments) | SMILES |
| --- | --- | --- | --- | --- | --- | --- | --- |
| 14.4 ± 0.6 μM^−1 | hydrolyzed | 3.1 ± 0.2 µM | 16.4 ± 0.8 µM | – | – | – | [BH3-]P(=O)(OC[C@H]1O[C@@H](n2cnc3c(=O)[nH]c(N)nc32)[C@H](O)[C@@H]1O)OP(=O)(O)OP(=O)(O)OC[C@H]1O[C@@H](n2c[n+](C)c3c(=O)[nH]c(N)nc32)[C@H](O)[C@@H]1O (single isomer, unassigned) [m^7GpppBH3G (D2), m^7GpppBH3G] |
| 15.3 ± 0.2 μM^−1 | hydrolyzed | – | – | 2.38 | 3.28 | 2.83 | [BH3-]P(=O)(OC[C@H]1O[C@@H](n2cnc3c(=O)[nH]c(N)nc32)[C@H](O)[C@@H]1O)OP(=O)(O)OP(=O)(O)OC[C@H]1O[C@@H](n2c[n+](C)c3c(=O)[nH]c(N)nc32)[C@H](OC)[C@@H]1O (single isomer, unassigned) [m2^7,2′-OGpppBH3G (D1), m2^7,2′-OGpppBH3G] |
